Assay [1] concerns the target T1, hGOAT (Homo sapiens, UniProt Q96T53).
T1 construct: His10 (C); made in house; host or cells: Sf9 insect cells (baculovirus), membranes
T1 sequence (Q96T53 1-435): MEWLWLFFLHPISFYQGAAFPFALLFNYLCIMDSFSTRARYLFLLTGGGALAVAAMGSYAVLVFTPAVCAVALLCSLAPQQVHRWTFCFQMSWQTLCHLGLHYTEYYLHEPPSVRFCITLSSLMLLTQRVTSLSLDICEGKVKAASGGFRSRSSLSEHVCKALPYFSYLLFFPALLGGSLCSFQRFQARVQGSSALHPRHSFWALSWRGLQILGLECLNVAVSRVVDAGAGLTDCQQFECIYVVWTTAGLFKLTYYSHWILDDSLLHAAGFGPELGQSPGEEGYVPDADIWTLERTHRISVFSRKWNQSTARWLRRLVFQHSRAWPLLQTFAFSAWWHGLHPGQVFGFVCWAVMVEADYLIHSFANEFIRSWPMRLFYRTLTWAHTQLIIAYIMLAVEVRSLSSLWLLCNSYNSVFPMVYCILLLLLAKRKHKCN
The assay is described as follows: fluorescent ghrelin peptide substrates assayed for activity with hGOAT (HPLC with fluorescence detection). It is filed as biochemical. As to conditions: peptide as substrate for octanoylation by hGOAT. As to the method:
With the peptide substrates, the addition of the hydrophobic octanoyl group upon serine acylation at position 3 leads to an increase in retention time in reverse-phase (RP) HPLC. The panel of fluorescent ghrelin peptide substrates was assayed for activity with hGOAT using HPLC coupled with fluorescence detection of the fluorescently labeled peptides. All reactions with hGOAT-His10 membranes were performed in parallel with mock membranes to account for nonspecific peptide modifications.
(§1) An assay for human ghrelin O-acyltransferase activity was performed using hGOAT expressed from insect (Sf9) cells using standard baculoviral methods and a fluorescent 6-mer peptide synthesized by a single step reaction followed by high performance liquid chromatography (HPLC) purification. The assay was performed at room temperature using hGOAT membrane protein, octanoyl-CoA, a fluorescent ghrelin peptide, a buffer, and a detergent. Activity may be measure by detecting the presence of any octanoylation of the ghrelin peptide. For example, the presence of octanoylated ghrelin peptide may be confirmed by HPLC or by using a fluorescent system whose fluorescence will increase as a result of octanoylation of the ghrelin peptide.

Assay [2] has as its target T1, hGOAT. The assay is described as follows: in vitro hGOAT activity assay (inhibition of ghrelin peptide octanoylation, HPLC/fluorescence). It is filed as biochemical. The conditions noted are these: for IC50: hGOAT membrane fraction from Sf9 cells, in vitro octanoylation assay. As to the method: as §1
A library of potential inhibitors was screened using the assay of the present invention. More particularly, membrane fractions from Sf9 cells expressing hGOAT were thawed on ice and homogenized by passing through an 18-gauge needle ten times. Membrane fraction containing ˜50-100 μg membrane protein (determined by Bradford assay) was preincubated for 30 minutes at room temperature with 1 μM MAFP, 500 μM octanoyl CoA, 50 mM HEPES (pH=7.0), and 1 μl Diversity Set compound dissolved in DMSO for a final inhibitor concentration of either 10 or 100 μM for primary screening. Reactions were initiated with the addition of 1.5 μM fluorescent peptide substrate, incubated at room temperature in the dark for 3 hours, then stopped with 50 μl 20% acetic acid in isopropanol. The solutions were clarified by protein precipitation with 16.7 μl 20% trichloroacetic acid, followed by centrifugation (1,000×g, 1 m). The resulting supernatant was analyzed by reverse phase HPLC.
Reactions followed the above procedure, and included inhibitor concentrations of 1, 5, 10, 50, or 100 μM, as well as a DMSO-only vehicle control. Compounds determined to act as hGOAT inhibitors are seen in FIGS. 4 through 6.

In the next assay the target is T2, mouse isoform of GOAT (Mus musculus, UniProt P0C7A3).
T2 construct: expressed in transfected cells; host or cells: HEK293FT, stably transfected with the phPPG-mGOAT plasmid (gift from Dr. Jef Boeke's laboratory)
T2 sequence (P0C7A3 1-435): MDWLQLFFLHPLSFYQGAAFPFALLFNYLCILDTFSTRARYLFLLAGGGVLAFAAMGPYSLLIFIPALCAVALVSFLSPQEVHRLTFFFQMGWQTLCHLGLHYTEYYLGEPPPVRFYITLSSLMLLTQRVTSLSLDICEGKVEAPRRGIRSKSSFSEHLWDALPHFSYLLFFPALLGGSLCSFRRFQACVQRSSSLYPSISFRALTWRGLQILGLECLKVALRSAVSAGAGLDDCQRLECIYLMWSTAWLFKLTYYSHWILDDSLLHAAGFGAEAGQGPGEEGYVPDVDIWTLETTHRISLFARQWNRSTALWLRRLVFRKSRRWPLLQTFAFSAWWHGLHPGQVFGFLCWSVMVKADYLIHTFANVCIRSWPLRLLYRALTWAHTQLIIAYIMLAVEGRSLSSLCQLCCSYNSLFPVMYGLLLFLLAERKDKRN
The experiment in a line: cell-based inhibition of ghrelin octanoylation, acyl ghrelin ELISA in GOAT/preproghrelin transfected HEK293FT cells. As to conditions: stably transfected HEK293FT cells, 24 hours incubation, read-out: cellular IC50, reduction of acyl ghrelin concentrations. (An ELISA detects its analyte on a solid surface through an enzyme-linked reagent.)

Ends that are not written are not given here. * marks the point of attachment. acrylodan = CN(C)c1ccc2cc(C(=O)CC*)ccc2c1; Dansyl = CN(C)c1cccc2c(S(=O)(=O)*)cccc12

Procedure for mouse isoform of GOAT: Stably transfected GOAT/Preproghrelin HEK 293FT cells were generated using the phPPG-mGOAT plasmid (a gift from Dr. Jef Boeke's laboratory) containing human preproghrelin (hPPG) and mouse ghrelin O-acyltransferase (mGOAT) connected by an intervening encephalomyocarditis virus internal ribosome entry site (ECMV-IRES) under puromycin selection as previously described. Cells were transfected using Lipofectamine 2000 (Invitrogen) at a 2 μL to 1 μg DNA ratio in 10 cm tissue culture-treated dishes according to manufacturer's protocol. The 293FT-hPPG-mGOAT cells were cultured in DMEM medium (Corning) supplemented with 10% inactivated fetal bovine serum, 1% penicillin/streptomycin, 1 ug/mL puromycin, and 0.01% octanoic acid and routinely passaged 2-3 times per week. A clonal line was chosen through serial dilution into a 96-well plate.
Cell density and number were optimized for detection of acyl ghrelin via ELISA (EMD Millipore Corp). 293FT-hPPG-mGOAT clonal cells were plated in the late afternoon in 24-plates at 2×10^5 cells/well. Cells were incubated overnight at 37° C., 5% CO2 and treated the next morning with inhibitors or vehicle (DMSO) in triplicate. Cells were treated for 24 hours and harvested after medium aspiration using 40 μL/well trypsin-EDTA (0.25%, Corning) containing 5 μM methoxy arachidonyl flourophosphonate (MAFP). […]

On to “1-Dansyl: fluorescent ghrelin mimic peptide substrate, Dansyl-GSSFLS (SEQ. ID No. 2) (ends and bridges not checked)”, for which, in the assay with hGOAT [1], the “Active with hGOAT?” value is “not modified by hGOAT and No”. Take “AcDan-5: acrylodan-labeled ghrelin mimic peptide substrate, GSSFCAcDanS (SEQ. ID No. 4) (GSSFC(acrylodan)S; ends and bridges not checked)”: the “Active with hGOAT?” value with hGOAT [1] was “yielded the octanoylated peptide and Yes”. Regarding `CC1(C)CC[C@]2(C(=O)n3ccnc3)CC[C@]3(C)[C@H](C(=O)C=C4[C@@]5(C)C=C(C#N)C(=O)C(C)(C)[C@@H]5CC[C@]43C)[C@@H]2C1` [CDDO-Im, 1[2-cyano-3,12-dioxooleana-1,9-dien-28-oyl]imidazole], the IC50 against hGOAT [2] was 38 ± 6 µM. In the case of “AcDan-2: acrylodan-labeled ghrelin mimic peptide substrate, GCAcDanSFLS (SEQ. ID No. 3) (GC(acrylodan)SFLS; ends and bridges not checked)”, in the assay with hGOAT [1], the “Active with hGOAT?” value is “not modified by hGOAT and No”. As for `CCNC(=O)[C@]12CCC(C)(C)C[C@H]1[C@H]1C(=O)C=C3[C@@]4(C)C=C(C#N)C(=O)C(C)(C)[C@@H]4CC[C@@]3(C)[C@]1(C)CC2` [CDDO-EA], the IC50 against hGOAT [2] is 8 ± 4 µM; on mouse isoform of GOAT, 0.32 ± 0.15 µM. Regarding “AcDan-6: acrylodan-labeled ghrelin mimic peptide substrate, GSSFLCAcDan (SEQ. ID No. 5) (GSSFLC(acrylodan)-NH2; ends and bridges not checked)”, the “Active with hGOAT?” value in the assay with hGOAT [1] is “yielded the octanoylated peptide and Yes”. As to `COC(=O)[C@]12CCC(C)(C)C[C@H]1[C@H]1C(=O)C=C3[C@@]4(C)C=C(C#N)C(=O)C(C)(C)[C@@H]4CC[C@@]3(C)[C@]1(C)CC2` [CDDO-Me, methyl 2-cyano-3,12-dioxooleana-1,9(11)dien-28-oate], the “inhibitory activity against hGOAT-catalyzed ghrelin octanoylation (in words)” value against hGOAT [2] (in vitro hGOAT activity assay) was “exhibits inhibitory activity against hGOAT”. On mouse isoform of GOAT, the IC50 is 0.035 ± 0.01 µM.

(Values after patent US20170056373A1, “GHRELIN O-ACYLTRANSFERASE INHIBITORS” (SYRACUSE UNIVERSITY, priority 2015, published 2017).)
